Data from PMC9377102, “Toxicity and toxicokinetics of the ethanol extract of Zuojin formula” (BMC Complementary Medicine and Therapies, 2022).
Where two headings read alike, the source gives them in different places.

Assay: Toxicokinetics test in the satellite groups (UPLC-MS/MS of rat plasma)
Assay type: in vivo
Conditions: for AUC(0-t) / Cmax / Tmax / half-life: SD, rat, plasma, po; for half-life: read-out: T1/2 mean (converted)
Procedure: SD rats (5 ~ 6 weeks, 3/group/sex) were randomly allocated to three treatment groups and given the same dosage as those in the repeated toxicity experiment for 28 days. […] Carbamazepine was chosen as the internal standard (IS). The blood samples were centrifuged to obtain plasma. Then, 300 μL of acetonitrile containing 40 ng of IS was added to 100 μL of plasma. After vortexing for 1 min, the mixture was centrifuged at 17,000 rpm for 15 min at 4 °C. The supernatant of each sample was injected into a UPLC–MS/MS system for determination. The injection volume was 1 μL. UPLC–MS analysis was performed on a Thermo Fisher Scientific Ultimate 3000 UPLC system (San Jose, USA) and an API 4000 QTRAP mass spectrometer (Foster City, USA) equipped with an ESI source. The mobile phase consisted of 2 solvents: (A) water containing 0.1% formic acid and (B) 100% acetonitrile. For MS, multiple reaction monitoring (MRM) in positive ion mode was used as the scanning mode for the main components and IS in the plasma samples. The dwell time (DT), collision energy (CE), quadrupole 1 pre-rod bias (Q1) and quadrupole 3 pre-rod bias (Q3) are listed in Table 3.

[1] = female, female rats, Day 1, highest dose (berberine 72.08, epiberberine 7.42, coptisine 7.42, palmatine 18.26, jatrorrhizine 2.80, columbamine 5.93 mg/kg)
[2] = female, female rats, Day 1, lowest dose (berberine 8.01, epiberberine 0.82, coptisine 1.38, palmatine 2.03, jatrorrhizine 0.31, columbamine 0.66 mg/kg)
[3] = female, female rats, Day 1, middle dose (berberine 24.03, epiberberine 2.47, coptisine 2.47, palmatine 6.09, jatrorrhizine 0.93, columbamine 1.98 mg/kg)
[4] = female, female rats, Day 28, highest dose (berberine 72.08, epiberberine 7.42, coptisine 7.42, palmatine 18.26, jatrorrhizine 2.80, columbamine 5.93 mg/kg)
[5] = female, female rats, Day 28, lowest dose (berberine 8.01, epiberberine 0.82, coptisine 1.38, palmatine 2.03, jatrorrhizine 0.31, columbamine 0.66 mg/kg)
[6] = female, female rats, Day 28, middle dose (berberine 24.03, epiberberine 2.47, coptisine 2.47, palmatine 6.09, jatrorrhizine 0.93, columbamine 1.98 mg/kg)
[7] = male, male rats, Day 1, highest dose (berberine 72.08, epiberberine 7.42, coptisine 7.42, palmatine 18.26, jatrorrhizine 2.80, columbamine 5.93 mg/kg)
[8] = male, male rats, Day 1, lowest dose (berberine 8.01, epiberberine 0.82, coptisine 1.38, palmatine 2.03, jatrorrhizine 0.31, columbamine 0.66 mg/kg)
[9] = male, male rats, Day 1, middle dose (berberine 24.03, epiberberine 2.47, coptisine 2.47, palmatine 6.09, jatrorrhizine 0.93, columbamine 1.98 mg/kg)
[10] = male, male rats, Day 28, highest dose (berberine 72.08, epiberberine 7.42, coptisine 7.42, palmatine 18.26, jatrorrhizine 2.80, columbamine 5.93 mg/kg)
[11] = male, male rats, Day 28, lowest dose (berberine 8.01, epiberberine 0.82, coptisine 1.38, palmatine 2.03, jatrorrhizine 0.31, columbamine 0.66 mg/kg)
[12] = male, male rats, Day 28, middle dose (berberine 24.03, epiberberine 2.47, coptisine 2.47, palmatine 6.09, jatrorrhizine 0.93, columbamine 1.98 mg/kg)

SMILES: COc1cc2c(cc1O)-c1cc3ccc(OC)c(OC)c3c[n+]1CC2 [columbamine]
- AUC(0-t) (female, 0.4 g/kg, female rats, Day 1, low dose TAZF 0.4 g/kg by gavage, read-out: AUC0-t): 71.4 ± 80.1 ng·h/mL
- Cmax (female, 0.4 g/kg, female rats, Day 1, low dose TAZF 0.4 g/kg by gavage, read-out: Cmax): 30 ± 20.7 ng/mL
- AUC(0-t) (female, 0.4 g/kg, female rats, Day 28, low dose TAZF 0.4 g/kg by gavage, read-out: AUC0-t): 68.1 ± 76.9 ng·h/mL
- Cmax (female, 0.4 g/kg, female rats, Day 28, low dose TAZF 0.4 g/kg by gavage, read-out: Cmax): 30.3 ± 40 ng/mL
- AUC(0-t) (female, 3.7 g/kg, female rats, Day 1, high dose TAZF 3.7 g/kg by gavage, read-out: AUC0-t): 41.1 ± 10 ng·h/mL
- Cmax (female, 3.7 g/kg, female rats, Day 1, high dose TAZF 3.7 g/kg by gavage, read-out: Cmax): 37.7 ± 30.4 ng/mL
- AUC(0-t) (female, 3.7 g/kg, female rats, Day 28, high dose TAZF 3.7 g/kg by gavage, read-out: AUC0-t): 12.2 ± 4.52 ng·h/mL
- Cmax (female, 3.7 g/kg, female rats, Day 28, high dose TAZF 3.7 g/kg by gavage, read-out: Cmax): 2.98 ± 0.24 ng/mL
- Tmax [1]: 0.5 h
- AUC(0-t) (female, female rats, Day 1, highest dose (berberine 72.08, epiberberine 7.42, coptisine 7.42, palmatine 18.26, jatrorrhizine 2.80, columbamine 5.93 mg/kg), read-out: AUC0-t mean): 41.1 ng·h/mL
- Cmax (female, female rats, Day 1, highest dose (berberine 72.08, epiberberine 7.42, coptisine 7.42, palmatine 18.26, jatrorrhizine 2.80, columbamine 5.93 mg/kg), read-out: Cmax mean): 37.7 ng/mL
- half-life [1]: 8.24 h
- Tmax [2]: 2.33 h
- AUC(0-t) (female, female rats, Day 1, lowest dose (berberine 8.01, epiberberine 0.82, coptisine 1.38, palmatine 2.03, jatrorrhizine 0.31, columbamine 0.66 mg/kg), read-out: AUC0-t mean): 71.4 ng·h/mL
- Cmax (female, female rats, Day 1, lowest dose (berberine 8.01, epiberberine 0.82, coptisine 1.38, palmatine 2.03, jatrorrhizine 0.31, columbamine 0.66 mg/kg), read-out: Cmax mean): 30 ng/mL
- half-life [2]: 4.31 h
- Tmax [3]: 0.83 h
- AUC(0-t) (female, female rats, Day 1, middle dose (berberine 24.03, epiberberine 2.47, coptisine 2.47, palmatine 6.09, jatrorrhizine 0.93, columbamine 1.98 mg/kg), read-out: AUC0-t mean): 59.2 ng·h/mL
- Cmax (female, female rats, Day 1, middle dose (berberine 24.03, epiberberine 2.47, coptisine 2.47, palmatine 6.09, jatrorrhizine 0.93, columbamine 1.98 mg/kg), read-out: Cmax mean): 39.6 ng/mL
- half-life [3]: 7.78 h
- Tmax [4]: 1.17 h
- AUC(0-t) (female, female rats, Day 28, highest dose (berberine 72.08, epiberberine 7.42, coptisine 7.42, palmatine 18.26, jatrorrhizine 2.80, columbamine 5.93 mg/kg), read-out: AUC0-t mean): 12.2 ng·h/mL
- Cmax (female, female rats, Day 28, highest dose (berberine 72.08, epiberberine 7.42, coptisine 7.42, palmatine 18.26, jatrorrhizine 2.80, columbamine 5.93 mg/kg), read-out: Cmax mean): 2.98 ng/mL
- half-life [4]: 12.4 h
- Tmax [5]: 0.42 h
- AUC(0-t) (female, female rats, Day 28, lowest dose (berberine 8.01, epiberberine 0.82, coptisine 1.38, palmatine 2.03, jatrorrhizine 0.31, columbamine 0.66 mg/kg), read-out: AUC0-t mean): 68.1 ng·h/mL
- Cmax (female, female rats, Day 28, lowest dose (berberine 8.01, epiberberine 0.82, coptisine 1.38, palmatine 2.03, jatrorrhizine 0.31, columbamine 0.66 mg/kg), read-out: Cmax mean): 30.3 ng/mL
- half-life [5]: 10.9 h
- Tmax [6]: 1.5 h
- AUC(0-t) (female, female rats, Day 28, middle dose (berberine 24.03, epiberberine 2.47, coptisine 2.47, palmatine 6.09, jatrorrhizine 0.93, columbamine 1.98 mg/kg), read-out: AUC0-t mean): 9.42 ng·h/mL
- Cmax (female, female rats, Day 28, middle dose (berberine 24.03, epiberberine 2.47, coptisine 2.47, palmatine 6.09, jatrorrhizine 0.93, columbamine 1.98 mg/kg), read-out: Cmax mean): 1.35 ng/mL
- half-life [6]: 10.7 h
- AUC(0-t) (male, 0.4 g/kg, male rats, Day 1, low dose TAZF 0.4 g/kg by gavage, read-out: AUC0-t): 153 ± 54.9 ng·h/mL
- Cmax (male, 0.4 g/kg, male rats, Day 1, low dose TAZF 0.4 g/kg by gavage, read-out: Cmax): 32.1 ± 28.7 ng/mL
- AUC(0-t) (male, 0.4 g/kg, male rats, Day 28, low dose TAZF 0.4 g/kg by gavage, read-out: AUC0-t): 31.1 ± 2.21 ng·h/mL
- Cmax (male, 0.4 g/kg, male rats, Day 28, low dose TAZF 0.4 g/kg by gavage, read-out: Cmax): 44.2 ± 42.3 ng/mL
- AUC(0-t) (male, 3.7 g/kg, male rats, Day 1, high dose TAZF 3.7 g/kg by gavage, read-out: AUC0-t): 276 ± 92 ng·h/mL
- Cmax (male, 3.7 g/kg, male rats, Day 1, high dose TAZF 3.7 g/kg by gavage, read-out: Cmax): 46.5 ± 30.3 ng/mL
- AUC(0-t) (male, 3.7 g/kg, male rats, Day 28, high dose TAZF 3.7 g/kg by gavage, read-out: AUC0-t): 65.1 ± 6.74 ng·h/mL
- Cmax (male, 3.7 g/kg, male rats, Day 28, high dose TAZF 3.7 g/kg by gavage, read-out: Cmax): 16.4 ± 11.8 ng/mL
- Tmax [7]: 4 h
- AUC(0-t) (male, male rats, Day 1, highest dose (berberine 72.08, epiberberine 7.42, coptisine 7.42, palmatine 18.26, jatrorrhizine 2.80, columbamine 5.93 mg/kg), read-out: AUC0-t mean): 276 ng·h/mL
- Cmax (male, male rats, Day 1, highest dose (berberine 72.08, epiberberine 7.42, coptisine 7.42, palmatine 18.26, jatrorrhizine 2.80, columbamine 5.93 mg/kg), read-out: Cmax mean): 46.5 ng/mL
- half-life [7]: 10.9 h
- Tmax [8]: 10 h
- AUC(0-t) (male, male rats, Day 1, lowest dose (berberine 8.01, epiberberine 0.82, coptisine 1.38, palmatine 2.03, jatrorrhizine 0.31, columbamine 0.66 mg/kg), read-out: AUC0-t mean): 153 ng·h/mL
- Cmax (male, male rats, Day 1, lowest dose (berberine 8.01, epiberberine 0.82, coptisine 1.38, palmatine 2.03, jatrorrhizine 0.31, columbamine 0.66 mg/kg), read-out: Cmax mean): 32.1 ng/mL
- half-life [8]: 47.8 h
- Tmax [9]: 1.83 h
- AUC(0-t) (male, male rats, Day 1, middle dose (berberine 24.03, epiberberine 2.47, coptisine 2.47, palmatine 6.09, jatrorrhizine 0.93, columbamine 1.98 mg/kg), read-out: AUC0-t mean): 207 ng·h/mL
- Cmax (male, male rats, Day 1, middle dose (berberine 24.03, epiberberine 2.47, coptisine 2.47, palmatine 6.09, jatrorrhizine 0.93, columbamine 1.98 mg/kg), read-out: Cmax mean): 41.7 ng/mL
- half-life [9]: 59.9 h
- Tmax [10]: 4.08 h
- AUC(0-t) (male, male rats, Day 28, highest dose (berberine 72.08, epiberberine 7.42, coptisine 7.42, palmatine 18.26, jatrorrhizine 2.80, columbamine 5.93 mg/kg), read-out: AUC0-t mean): 65.1 ng·h/mL
- Cmax (male, male rats, Day 28, highest dose (berberine 72.08, epiberberine 7.42, coptisine 7.42, palmatine 18.26, jatrorrhizine 2.80, columbamine 5.93 mg/kg), read-out: Cmax mean): 16.4 ng/mL
- half-life [10]: 11.2 h
- Tmax [11]: 0.83 h
- AUC(0-t) (male, male rats, Day 28, lowest dose (berberine 8.01, epiberberine 0.82, coptisine 1.38, palmatine 2.03, jatrorrhizine 0.31, columbamine 0.66 mg/kg), read-out: AUC0-t mean): 31.1 ng·h/mL
- Cmax (male, male rats, Day 28, lowest dose (berberine 8.01, epiberberine 0.82, coptisine 1.38, palmatine 2.03, jatrorrhizine 0.31, columbamine 0.66 mg/kg), read-out: Cmax mean): 44.2 ng/mL
- half-life [11]: 7.52 h
- Tmax [12]: 12 h
- AUC(0-t) (male, male rats, Day 28, middle dose (berberine 24.03, epiberberine 2.47, coptisine 2.47, palmatine 6.09, jatrorrhizine 0.93, columbamine 1.98 mg/kg), read-out: AUC0-t mean): 90.6 ng·h/mL
- Cmax (male, male rats, Day 28, middle dose (berberine 24.03, epiberberine 2.47, coptisine 2.47, palmatine 6.09, jatrorrhizine 0.93, columbamine 1.98 mg/kg), read-out: Cmax mean): 21.4 ng/mL
- half-life [12]: 4.07 h
- Systemic exposure after 28 days of administration vs single administration (rats, oral TAZF): much lower
